{"source": "patent US12084472B2", "about": "(Ardelyx, Inc., priority 2015, dated 2024)", "key": {"[1]": {"test_system": "mice with DSS-induced colitis", "assay": "Inflammatory bowel disease model (DSS colitis): DAI, colon length, cytokines, histology", "assay_type": "in vivo, C57BL/6 female mice", "details": "I-389 30 mg/kg PO BID", "protocol": "Six week old C57BL/6 female, were acclimated for 2 days. Starting on Day −2, 5 groups of mice were dosed PO (mL/kg) BID with 1) vehicle (10% HPCD); 2) vehicle; 3) vehicle; mice had sitagliptin (3.6 g/L for a dose of ˜800 mg/kg/day) added to their drinking water; 4) I-389 30 mg/kg; or 5) I-389 30 mg/kg; mice had sitagliptin (3.6 g/L for a dose of 800 mg/kg/day) added to their drinking water. On Day 0, mice in groups 2-5 were put on drinking water containing 1.5% DSS to induce colitis. Note: Groups 3 & 5 were on drinking water containing both DSS and sitagliptin. On Day 7, mice were taken off of DSS treatment and received either regular drinking water (Groups 1, 2, and 4) or drinking water with sitagliptin (Groups 3 and 5). On Day 8, mice were transferred to a separate container for DAI scoring which consists of evaluation of stool consistency, blood in stool, incidence of rectal prolapse, and body condition according to the scoring system shown in Table 19. The DAI score is a summation of each individual score in each category (columns) for a single animal. Mice were euthanized, blood was collected for plasma, colons were removed for length measurement, cytokine analysis, and histological staining, pathological analysis and scoring of colonic tissue damage. Colonic tissue damage was scored according to observed microscopic changes based on the following schema: 0=no significant change, 1=minimal, 2=mild, 3=moderate and 4=severe. Parametric data for each group are presented as mean±SEM. Statistical analysis was performed using one-way ANOVA followed by Holm-Sidak's multiple comparisons test. Statistical significance versus DSS/vehicle is marked as *, P<0.05; **, P<0.01, ***, P<0.001, and ****, P<0.0001. Statistical significance versus DSS/I-389 is marked as †††, P<0.001. Non-parametric data for each group is shown as a dot blot with median (line). Statistical analysis was performed using Kruskal-Wallis test followed by Dunn's test to detect differences between groups."}, "[2]": {"test_system": "mice with 5-FU-induced diarrhea", "assay": "Chemotherapy-induced diarrhea model (5-FU), fecal form score", "assay_type": "in vivo, CD-1 female mice", "details": "5-FU 60 mg/kg IP days 5-11; I-388 30 mg/kg PO BID, teduglutide 0.4 mg/kg SQ BID, days 1-13; FFS days 11-13 summed; FIG. 1", "protocol": "Four groups of adult CD-1 female mice on regular chow were dosed with the following BID starting on Day 1: 2 groups, vehicle (10% hydroxypropyl-β-cyclodextrin in PBS; PO; 5 mL/kg); 1 group, Compound I-388 at 30 mg/kg in vehicle (PO; 5 mL/kg); and 1 group, teduglutide 0.4 mg/kg (American Peptide, Sunnyvale, CA; reconstituted in PBS; SQ; 10 mL/kg) 0.4 mg/kg SQ. On Days 5-11, the groups of mice were also given QD IP injections (5 mL/kg) of the following treatments: first vehicle group, PBS and remaining groups, 5-fluorouracil (5-FU) 60 mg/kg (Fresenius Kabi USA, Lake Zurich, IL) diluted in PBS to induce mucositis with diarrhea. Body weight was measured throughout the study and fecal form was scored on Day 11-13 of the study according to the following scale: 0, normal stool; 1, slightly wet and soft stool; 2, wet and unformed stool with moderate perianal staining of the coat; 3, watery stool with severe perianal staining of the coat.\nAll mice were dosed on day 1-13 with vehicle, with 0.4 mg/kg of teduglutide, or with 30 mg/kg of compound I-388 (vehicle and Cmpd. I-388: PO, […] and teduglutide: SQ, 10 mL/kg). PBS or 5-FU at 60 mg/kg (used to induce mucositis and diarrhea) were administered interperionally (IP; 5 mL/kg) on days 5-11."}, "[3]": {"target": "T1, human TGR5 (Homo sapiens, UniProt Q8TDU6)", "T1 construct": "expressed in transfected cells; host or cells: HEK293", "T1 sequence (Q8TDU6 1-330)": "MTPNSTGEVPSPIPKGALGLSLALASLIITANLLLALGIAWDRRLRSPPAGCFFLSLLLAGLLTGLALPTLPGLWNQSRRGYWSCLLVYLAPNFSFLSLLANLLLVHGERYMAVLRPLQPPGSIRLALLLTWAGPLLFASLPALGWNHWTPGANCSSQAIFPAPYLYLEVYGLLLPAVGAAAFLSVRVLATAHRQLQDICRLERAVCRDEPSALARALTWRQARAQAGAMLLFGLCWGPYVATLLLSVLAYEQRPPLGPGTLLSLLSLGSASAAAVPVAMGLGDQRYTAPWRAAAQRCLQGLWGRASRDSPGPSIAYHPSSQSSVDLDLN", "assay": "Cell-based TGR5 assay (cAMP generation, HTRF)", "details": "HEK293 cells stably transfected with human TGR5; cAMP by HTRF; 30 minutes at 37° C.; read-out: pEC50 Human TGR5 (converted)", "summary_of_the_method": "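Read-out was HTRF detection of cAMP, converted to concentration via a standard curve and fitted (3-parameter logistic) for pEC50 and maximal response. Agonist stimulation used HEK293 cells stably transfected with human TGR5, incubated 30 min at 37° C in IBMX-containing buffer at 0.05 nM to 10 μM compound.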"}, "[4]": {"test_system": "Western diet (WD)-fed mice", "assay": "Mouse model of NAFLD and mild diabetes, Western diet (WD)-fed mice: glucose, insulin, liver lipids, GLP levels", "assay_type": "in vivo, C57BL/6 male mice", "details": "Western diet, liraglutide 0.4 mg/kg BID SQ, I-389 30 mg/kg BID PO, linagliptin 10 mg/kg QD PO, mean±SEM", "protocol": "Seven week old C57BL/6 male mice were housed 5/cage. Two cages of mice were put on normal chow (Harlan Teklad 2018), and the remaining cages of mice were put on WD (Harlan Teklad, TD.88137, […]/0.2% cholesterol) to induce NAFLD. After 10 weeks, mice were weighed and fasted for 4 h. Blood was collected to measure fasting glucose levels, processed to plasma for measurement of insulin, triglycerides and total cholesterol. This process was repeated on Day 29 of treatment. Based on body weight and fasted glucose and insulin levels, mice were divided into 5 treatment groups (n=10/group), Table 20. […] Mice were weighed twice weekly throughout the study. On the last day of the study (Day 30, 8 hours after food removal), mice were euthanized. Blood was collected in tubes with inhibitors to block DPP-4 activity and processed to plasma for measurement of liver enzymes and GLP levels using an Ace Alera clinical analyzer and the Multi-Array Assay System from Meso Scale Discovery, respectively. The entire liver was collected, weighed, and a sample was taken and weighed for measurement of triglycerides and total cholesterol.\nData for each group are presented as mean±SEM. Statistical analyses were performed using one-way ANOVA followed by Holm-Sidak's multiple comparisons test. For GLP levels, <statistical significance compared to vehicle (WD) is marked as *, P<0.05; **, P<0.01, ***, P<0.001, and ****, P<0.0001; of linagliptin (WD) versus I-389 alone (WD) or linaglptin+I-389 (WD) is marked as †, P<0.05; ††, P<0.01, of †††, P<0.001, and ††††, P<0.0001; and of I-389 (WD) versus linagliptin (WD)+I-389 (WD) is marked as ^, P<0.05; ^ ^P<0.01, ^ ^^P, P<0.001, and ^ ^^^, P<0.0001. For the remaining parameters, statistical significance compared to vehicle (WD) is marked as *, P<0.05; **, P<0.01, ***, P<0.001, and ****, P<0.0001."}, "[5]": {"test_system": "small intestine and colon of mice", "assay": "Small intestine and colon weight, villus/crypt length, colon crypt depth, plasma GLP-1 and GLP-2 in mice", "assay_type": "in vivo, CD-1 female mice", "details": "ten consecutive days", "protocol": "Tedulgutide (a GLP-2 receptor agonist; American Peptide, catalog #304076, supplied by Bachem) 50 μg/kg in […] was injected SC in a control group BID during the same period. […] The small intestine and colon were collected, flushed with cold PBS to remove contests, patted dry, weighed and further trimmed for histological analysis. Morphometric analysis was performed to determine the villus/crypt length in the proximal jejunum and distal ileum and crypt depth (length) in the proximal colon.\nData for each group are presented as mean±SEM. Statistical analyses were performed using one-way ANOVA followed by Holm-Sidak's multiple comparisons test. Statistical significance compared to vehicle (WD) is marked as *, P<0.05; **, P<0.01, ***, P<0.001, and ****, P<0.0001."}}, "note": "Marks after values point to notes of the source that are not given here.", "data": [{"compound": "N[C@@H](CC(=O)N1CCn2c(nnc2C(F)(F)F)C1)Cc1cc(F)c(F)cc1F", "note": "[sitagliptin]", "values": [{"measurement": "DSS-induced colonic damage", "setting": "[1]; 1.5% DSS in drinking water, sitagliptin 3.6 g/L in drinking water (~800 mg/kg/day)", "value": "partially abrogated"}, {"measurement": "disease activity score (DAI)", "setting": "[1]; Day 8, 1.5% DSS, sitagliptin ~800 mg/kg/day in drinking water, vehicle/DSS 5.6, FIG. 2", "value": 3.0}, {"measurement": "colon length", "setting": "[1]; Day 8, 1.5% DSS, sitagliptin ~800 mg/kg/day, mean±SEM, vehicle/DSS 4.7±0.1, FIG. 3", "value": "5.6±0.2", "unit": "cm"}]}, {"compound": "O=C(NCCCCNS(=O)(=O)c1ccc(Cl)c(COC2(c3cnccc3-c3ccccc3OC3CC3)CC2)c1)[C@@H](O)[C@@H](O)[C@H](O)[C@@H](O)CO", "note": "[Compound I-388, (2S,3S,4R,5S)-N-(4-[[4-chloro-3-([1-[4-(2-cyclopropoxyphenyl)pyridin-3-yl]cyclopropoxy]methyl)benzene]sulfonamido]butyl)-2,3,4,5,6-pentahydroxyhexanamide]", "values": [{"measurement": "cumulative fecal form score (FFS)", "setting": "[2]", "value": "significantly improved"}, {"measurement": "EC50", "setting": "[3]", "value": "< 100", "unit": "nM"}]}, {"compound": "CC#CCn1c(N2CCC[C@@H](N)C2)nc2c1c(=O)n(Cc1nc(C)c3ccccc3n1)c(=O)n2C", "note": "[Linagliptin, linagliptin, reference compound]", "values": [{"measurement": "Liver weight", "setting": "[4]; vehicle WD 2.13 ± 0.14", "value": "1.77 ± 0.11* g"}, {"measurement": "4-h fasted insulin", "setting": "[4]; vehicle WD 2.3 ± 0.3", "value": "1.4 ± 0.2** ng/mL"}, {"measurement": "Hepatic cholesterol", "setting": "[4]; vehicle WD 8.56 ± 0.25", "value": "10.17 ± 0.21*** mg/g"}, {"measurement": "Hepatic triglycerides", "setting": "[4]; vehicle WD 145.40 ± 14.80", "value": "117.90 ± 6.76", "unit": "mg/g"}, {"measurement": "4-h fasted glucose", "setting": "[4]; vehicle WD 239 ± 13", "value": "185 ± 6** mg/dL"}]}, {"compound": "CC[C@H](C)[C@H](NC(=O)[C@H](Cc1ccccc1)NC(=O)[C@H](CC(=O)O)NC(=O)[C@H](CCCNC(=N)N)NC(=O)[C@H](C)NC(=O)[C@H](C)NC(=O)[C@H](CC(C)C)NC(=O)[C@H](CC(N)=O)NC(=O)[C@H](CC(=O)O)NC(=O)[C@H](CC(C)C)NC(=O)[C@@H](NC(=O)[C@@H](NC(=O)[C@H](CC(N)=O)NC(=O)[C@H](CCSC)NC(=O)[C@H](CCC(=O)O)NC(=O)[C@H](CC(=O)O)NC(=O)[C@H](CO)NC(=O)[C@H](Cc1ccccc1)NC(=O)[C@H](CO)NC(=O)CNC(=O)[C@H](CC(=O)O)NC(=O)CNC(=O)[C@@H](N)Cc1c[nH]cn1)[C@@H](C)O)[C@@H](C)CC)C(=O)N[C@@H](CC(N)=O)C(=O)N[C@@H](Cc1c[nH]c2ccccc12)C(=O)N[C@@H](CC(C)C)C(=O)N[C@H](C(=O)N[C@@H](CCC(N)=O)C(=O)N[C@H](C(=O)N[C@@H](CCCCN)C(=O)N[C@H](C(=O)N[C@H](C(=O)N[C@@H](CC(=O)O)C(=O)O)[C@@H](C)O)[C@@H](C)CC)[C@@H](C)O)[C@@H](C)CC", "note": "[teduglutide]", "values": [{"measurement": "cumulative fecal form score (FFS)", "setting": "[2]", "value": "significantly improved"}, {"measurement": "increase of colon weight", "setting": "[5]; teduglutide 50 μg/kg SC BID (trend), I-389 100 mg/kg PO BID co-dosed with sitagliptin 3.6 g/L in drinking water, FIG. 7, FIG. 8", "value": 14, "unit": "%"}, {"measurement": "increase of small intestine weight", "setting": "[5]; teduglutide 50 μg/kg SC BID, FIG. 7", "value": 48, "unit": "%"}, {"measurement": "increase of villus-crypt length in the proximal jejunum", "setting": "[5]; teduglutide 50 μg/kg SC BID, I-389 100 mg/kg PO BID + sitagliptin, FIG. 9", "value": 55, "unit": "%"}, {"measurement": "increase of villus-crypt length in the distal ileum", "setting": "[5]; teduglutide 50 μg/kg SC BID, I-389 100 mg/kg PO BID + sitagliptin, FIG. 10", "value": 30, "unit": "%"}]}]}
